Biological target: T1, human mAChR M4 (Homo sapiens, UniProt P08173)
T1 construct: expressed in transfected cells; host or cells: CHO-K1 (ATCC), stably expressing hM4 and Gqi5
T1 sequence (P08173 1-479): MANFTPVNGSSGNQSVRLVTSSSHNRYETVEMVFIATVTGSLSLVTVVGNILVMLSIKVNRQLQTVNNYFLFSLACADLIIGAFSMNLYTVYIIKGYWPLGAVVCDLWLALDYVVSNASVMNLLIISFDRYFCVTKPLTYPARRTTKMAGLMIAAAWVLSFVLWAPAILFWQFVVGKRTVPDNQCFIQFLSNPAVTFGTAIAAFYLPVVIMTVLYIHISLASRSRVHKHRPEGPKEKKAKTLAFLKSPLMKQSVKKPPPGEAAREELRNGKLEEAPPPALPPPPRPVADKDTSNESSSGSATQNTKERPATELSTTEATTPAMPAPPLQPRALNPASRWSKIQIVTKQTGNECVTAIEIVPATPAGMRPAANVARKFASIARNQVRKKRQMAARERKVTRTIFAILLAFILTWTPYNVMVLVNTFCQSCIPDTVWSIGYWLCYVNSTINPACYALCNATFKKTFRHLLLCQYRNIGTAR
Experiment: mAChR M4 cell-based functional assay: calcium flux (Fluo-4, FDSS), positive allosteric modulator activity on the EC20 acetylcholine response, hM4-Gqi5 CHO-K1 cells
Settings: for Emax at 30 µM: CHO-K1, human M4, % ACh maximum at 30 μM; for EC50: human M4, PAM activity on EC20 acetylcholine response, calcium flux, read-out: Human M4 EC50
Outline: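 CHO-K1 cells stably expressing human M4 with chimeric Gqi5, loaded with Fluo-4 AM for 50 min at 37° C. Compounds (11-point, 1:3 dilutions) added first, then an acetylcholine EC20 at 144 s; calcium read on FDSS at 1 Hz. EC50 is the half-maximal increase above the EC20 baseline, four-parameter logistic fit.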

Emax at 30 µM	EC50	SMILES
62%	7.69 µM	Cc1ccc(F)c(Oc2cnc3c(c2)CN(c2nc(C)nc4ccc(Cl)cc24)CC3)c1 [Compound 154, 6-chloro-4-[3-(2-fluoro-5-methyl-phenoxy)-7,8-dihydro-5H-1,6-naphthyridin-6-yl]-2-methyl-quinazoline]
80%	0.27 µM	Fc1cc2ncnc(N3CCc4ncc(Oc5ccccc5F)cc4C3)c2cc1F [Compound 158, 6,7-difluoro-4-[3-(2-fluorophenoxy)-7,8-dihydro-5H-1,6-naphthyridin-6-yl]quinazoline]
81%	0.68 µM	Fc1cccc(Oc2cnc3c(c2)CN(c2ncnc4cc(F)c(F)cc24)CC3)c1 [Compound 159, 6,7-difluoro-4-[3-(3-flurophenoxy)-7,8-dihydro-5H-1,6-naphthyridin-6-yl]quinazoline]
77%	1.81 µM	Cc1nc(N2CCc3ncc(C4CC4)cc3C2)c2cc(C(F)(F)F)ccc2n1 [Compound 165, 4-(3-cyclopropyl-7,8-dihydro-5H-1,6-naphthyridin-6-yl)-2-methyl-6-(trifluoromethyl)quinazoline]
70%	0.42 µM	COc1ccc2nc(Cl)nc(N3CCc4ncc(C(F)(F)F)cc4C3)c2c1 [Compound 166, 2-chloro-6-methoxy-4-[3-(trifluoromethyl)-7,8-dihydro-5H-1,6-naphthyridin-6-yl]quinazoline]
72%	0.35 µM	COc1cc2c(N3CCc4ncc(C(F)(F)F)cc4C3)nc(Cl)nc2cc1F [Compound 167, 2-chloro-7-fluoro-6-methoxy-4-[3-(trifluoromethyl)-7,8-dihydro-5H-1,6-naphthyridin-6-yl]quinazoline]
71%	0.51 µM	COc1ccc2nc(C)nc(N3CCc4ncc(C(F)(F)F)cc4C3)c2c1 [Compound 168, 6-methoxy-2-methyl-4-[3-(trifluoromethyl)-7,8-dihydro-5H-1,6-naphthyridin-6-yl]quinazoline]
74%	0.26 µM	COc1cc2c(N3CCc4ncc(C(F)(F)F)cc4C3)nc(C)nc2cc1F [Compound 169, 7-fluoro-6-methoxy-2-methyl-4-[3-(trifluoromethyl)-7,8-dihydro-5H-1,6-naphthyridin-6-yl]quinazoline]
81%	0.81 µM	Cc1nc(N2CCc3ncc(C(F)(F)F)cc3C2)c2cc(F)c(C)cc2n1 [Compound 172, 6-fluoro-2,7-dimethyl-4-[3-(trifluoromethyl)-7,8-dihydro-5H-1,6-naphthyridin-6-yl]quinazoline]
82%	0.14 µM	[2H]c1nc(N2CCc3ncc(-c4cnc(C)s4)cc3C2)c2cc(C)ccc2n1 [Compound 174, 5-[6-(2-deuterio-6-methyl-quinazolin-4-yl)-7,8-dihydro-5H-1,6-naphthyridin-3-yl]-2-methyl-thiazole]
73%	0.74 µM	Cc1ccc2nc(C3CC3)nc(N3CCc4ncc(-c5cn(C)nc5C)cc4C3)c2c1 [Compound 176, 2-cyclopropyl-4-[3-(1,3-dimethylpyrazol-4-yl)-7,8-dihydro-5H-1,6-naphthyridin-6-yl]-6-methyl-quinazoline]
92%	0.06 µM	Cc1ccc2nc(C)nc(N3CCc4ncc(C(F)(F)F)cc4C3)c2c1 [Compound 177, 2,6-dimethyl-4-[3-(trifluoromethyl)-7,8-dihydro-5H-1,6-naphthyridin-6-yl]quinazoline]

The next lines start with the compound.

SMILES	Emax at 30 µM	EC50
CC1Cc2ncc(C(F)(F)F)cc2CN1c1ncnc2ccc(F)cc12 (centres unmarked) [Compound 155, 6-fluoro-4-[7-methyl-3-(trifluoromethyl)-7,8-dihydro-5H-1,6-naphthyridin-6-yl]quinazoline]	98%	0.06 µM
Cc1nc(N2Cc3cc(C(F)(F)F)cnc3CC2C)c2cc(F)ccc2n1 (centres unmarked) [Compound 156, 6-fluoro-2-methyl-4-[7-methyl-3-(trifluoromethyl)-7,8-dihydro-5H-1,6-naphthyridin-6-yl]quinazoline]	99%	0.22 µM
Cc1nc(N2Cc3cc(C(F)(F)F)cnc3C(C)C2)c2cc(F)ccc2n1 (centres unmarked) [Compound 157, 6-fluoro-2-methyl-4-[8-methyl-3-(trifluoromethyl)-7,8-dihydro-5H-1,6-naphthyridin-6-yl]quinazoline]	95%	0.22 µM
Cc1ccc2ncnc(N3CCc4ncc(C5CC5)cc4C3)c2c1 [Compound 160, 4-(3-cyclopropyl-7,8-dihydro-5H-1,6-naphthyridin-6-yl)-6-methyl-quinazoline]	90%	0.03 µM
COc1ccc2ncnc(N3CCc4ncc(C5CC5)cc4C3)c2c1 [Compound 161, 4-(3-cyclopropyl-7,8-dihydro-5H-1,6-naphthyridin-6-yl)-6-methoxy-quinazoline]	83%	0.11 µM
Fc1cc2ncnc(N3CCc4ncc(C5CC5)cc4C3)c2cc1F [Compound 162, 4-(3-cyclopropyl-7,8-dihydro-5H-1,6-naphthyridin-6-yl)-6,7-difluoro-quinazoline]	88%	0.06 µM
FC(F)(F)c1ccc2nc(N3CCc4ncc(C5CC5)cc4C3)nc(N3CCc4ncc(C5CC5)cc4C3)c2c1 [Compound 163, 2,4-bis(3-cyclopropyl-7,8-dihydro-5H-1,6-naphthyridin-6-yl)-6-(trifluoromethyl)quinazoline]	57%	> 10 µM
Fc1ccc2ncnc(N3CCc4ncc(Cc5ccccc5F)cc4C3)c2c1 [Compound 164, 6-fluoro-4-[3-[(2-fluorophenyl)methyl]-7,8-dihydro-5H-1,6-naphthyridin-6-yl]quinazoline]	75%	0.59 µM
Fc1ccc(Cc2cnc3c(c2)CN(c2ncnc4ccc(F)cc24)CC3)cc1 [Compound 170, 6-fluoro-4-[3-[(4-fluorophenyl)methyl]-7,8-dihydro-5H-1,6-naphthyridin-6-yl]quinazoline]	82%	0.49 µM
Fc1cc2c(N3CCc4ncc(C(F)(F)F)cc4C3)nc(Cl)nc2cc1Cl [Compound 171, 2,7-dichloro-6-fluoro-4-[3-(trifluoromethyl)-7,8-dihydro-5H-1,6-naphthyridin-6-yl]quinazoline]	50%	1.28 µM
Fc1ccc2nc(C(F)(F)F)nc(N3CCc4ncc(C(F)(F)F)cc4C3)c2c1 [Compound 173, 6-fluoro-2-(trifluoromethyl)-4-[3-(trifluoromethyl)-7,8-dihydro-5H-1,6-naphthyridin-6-yl]quinazoline]	50%	0.17 µM
Cc1ccc2nc(C3CC3)nc(N3CCc4ncc(-c5cnn(C6CC6)c5)cc4C3)c2c1 [Compound 175, 2-cyclopropyl-4-[3-(1-cyclopropylpyrazol-4-yl)-7,8-dihydro-5H-1,6-naphthyridin-6-yl]-6-methyl-quinazoline]	77%	0.56 µM
Fc1ccc2nc(C3CC3)nc(N3CCc4ncc(C(F)(F)F)cc4C3)c2c1 [Compound 178, 2-cyclopropyl-6-fluoro-4-[3-(trifluoromethyl)-7,8-dihydro-5H-1,6-naphthyridin-6-yl]quinazoline]	112%	1.9 µM
